Experimental data as given in patent publication US20240398828A1, “HETERO-ATOM CONTAINING COMPOUNDS AND USES THEREOF” (Kumquat Biosciences Inc., priority 2021, published 2024).

What was measured:
[1] = target: T1, PTPN2 (i.e., TC-PTP) (Homo sapiens, UniProt P17706); experiment: Phosphatase activity assay (DiFMUP substrate), PTPN2; type: biochemical; conditions: compounds binned ≤1 uM or >1 uM
T1 sequence (P17706 1-415): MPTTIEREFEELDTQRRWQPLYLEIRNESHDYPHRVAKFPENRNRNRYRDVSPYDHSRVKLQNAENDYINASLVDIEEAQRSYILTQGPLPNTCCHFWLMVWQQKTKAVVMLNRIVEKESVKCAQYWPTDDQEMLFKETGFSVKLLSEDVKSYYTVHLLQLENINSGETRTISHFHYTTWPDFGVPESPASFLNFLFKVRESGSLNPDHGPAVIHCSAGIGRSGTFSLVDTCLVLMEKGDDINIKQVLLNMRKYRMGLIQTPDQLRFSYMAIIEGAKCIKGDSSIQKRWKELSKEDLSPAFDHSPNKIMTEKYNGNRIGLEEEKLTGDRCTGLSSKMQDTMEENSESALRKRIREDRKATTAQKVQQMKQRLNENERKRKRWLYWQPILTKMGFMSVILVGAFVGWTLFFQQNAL
Procedure, shortened: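 Read-out is continuous fluorescence of DiFMU (360 nm excitation, 450 nm emission) over about 15-30 minutes, with DiFMUP substrate at the enzyme's independently determined Km (PTPN2 approx. 45 μM final). Buffer: 50 mM HEPES pH 7.5, 150 mM NaCl, 0.5 mM EDTA, 1 mM DTT, 0.001% Tween-20, room temperature; initial rates versus 10-point dilution fitted for IC50, at least duplicate.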

[2] = target: T2, PTPN1 (i.e., PTP1B) (Homo sapiens, UniProt P18031); experiment: Phosphatase activity assay (DiFMUP substrate), PTP1B; type: biochemical; conditions: compounds binned ≤1 uM or >1 uM
T2 sequence (P18031 1-435): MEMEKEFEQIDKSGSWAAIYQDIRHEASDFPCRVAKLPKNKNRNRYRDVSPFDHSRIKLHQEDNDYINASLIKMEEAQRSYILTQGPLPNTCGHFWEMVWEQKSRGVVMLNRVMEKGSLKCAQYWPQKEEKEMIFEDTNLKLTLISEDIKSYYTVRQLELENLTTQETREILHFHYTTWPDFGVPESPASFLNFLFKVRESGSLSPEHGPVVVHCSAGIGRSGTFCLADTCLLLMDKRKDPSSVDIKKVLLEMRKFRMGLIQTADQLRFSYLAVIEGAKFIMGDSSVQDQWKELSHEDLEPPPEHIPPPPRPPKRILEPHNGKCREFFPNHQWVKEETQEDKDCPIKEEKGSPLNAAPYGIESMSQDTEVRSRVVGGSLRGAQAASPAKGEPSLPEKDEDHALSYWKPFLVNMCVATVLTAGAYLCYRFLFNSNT
Procedure, shortened: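 First, serially diluted inhibitor is mixed about 2 minutes with enzyme in pH 7.5 HEPES/NaCl/EDTA/DTT/Tween-20 buffer. Next, DiFMUP is added at the enzyme's Km, approximately 45 μM for PTPN2. Finally, DiFMU appearance is read continuously at room temperature and rates are fitted for IC50.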

Row | SMILES | IC50 [1] [nM] | IC50 [2] [nM]
1 | Cc1ccc(-c2ccc(O)c(N3CC(=O)NS3(=O)=O)c2F)cn1 [Compound 180, 5-(2-fluoro-6-hydroxy-3-(6-methylpyridin-3-yl)phenyl)-1,2,5-thiadiazolidin-3-one 1,1-dioxide] | ≤ 1000 | ≤ 1000
2 | O=C1CN(c2c(O)ccc(-c3cn(-c4cccc(F)c4)cn3)c2F)S(=O)(=O)N1 [Compound 181, 5-(2-fluoro-3-(1-(3-fluorophenyl)-1H-imidazol-4-yl)-6-hydroxyphenyl)-1,2,5-thiadiazolidin-3-one 1,1-dioxide] | ≤ 1000 | ≤ 1000
3 | Cc1cc(-c2ccc(O)c(N3CC(=O)NS3(=O)=O)c2F)on1 [Compound 182, 5-(2-fluoro-6-hydroxy-3-(3-methylisoxazol-5-yl)phenyl)-1,2,5-thiadiazolidin-3-one 1,1-dioxide] | ≤ 1000 | ≤ 1000
4 | Cc1cc(-c2ccc(O)c(N3CC(=O)NS3(=O)=O)c2F)[nH]n1 [Compound 183, 5-(2-fluoro-6-hydroxy-3-(3-methyl-1H-pyrazol-5-yl)phenyl)-1,2,5-thiadiazolidin-3-one 1,1-dioxide] | ≤ 1000 | ≤ 1000
5 | CC(C)CCn1cc(-c2cc(O)cc(N3CC(=O)NS3(=O)=O)c2)cn1 [Compound 184, 5-(3-hydroxy-5-(1-isopentyl-1H-pyrazol-4-yl)phenyl)-1,2,5-thiadiazolidin-3-one 1,1-dioxide] | > 1000 | > 1000
6 | Cn1ccc(-c2ccc(O)c(N3CC(=O)NS3(=O)=O)c2F)c1 [Compound 185, 5-(2-fluoro-6-hydroxy-3-(1-methyl-1H-pyrrol-3-yl)phenyl)-1,2,5-thiadiazolidin-3-one 1,1-dioxide] | ≤ 1000 | ≤ 1000
7 | O=C1CN(c2c(O)ccc(-c3cnn(Cc4ccc(F)cc4)c3)c2F)S(=O)(=O)N1 [Compound 186, 5-(2-fluoro-3-(1-(4-fluorobenzyl)-1H-pyrazol-4-yl)-6-hydroxyphenyl)-1,2,5-thiadiazolidin-3-one 1,1-dioxide] | ≤ 1000 | ≤ 1000
8 | O=C1CN(c2c(O)ccc(-c3cnn(Cc4cccnc4)c3)c2F)S(=O)(=O)N1 [Compound 187, 5-(2-fluoro-6-hydroxy-3-(1-(pyridin-3-ylmethyl)-1H-pyrazol-4-yl)phenyl)-1,2,5-thiadiazolidin-3-one 1,1-dioxide] | ≤ 1000 | ≤ 1000
9 | O=C1CN(c2c(O)ccc(-c3cnn(Cc4ccc(Cl)cc4)c3)c2F)S(=O)(=O)N1 [Compound 189, 5-(3-(1-(4-chlorobenzyl)-1H-pyrazol-4-yl)-2-fluoro-6-hydroxyphenyl)-1,2,5-thiadiazolidin-3-one 1,1-dioxide] | ≤ 1000 | ≤ 1000
10 | O=C1CN(c2c(O)ccc(-c3cn(-c4ccccc4)cn3)c2F)S(=O)(=O)N1 [Compound 190, 5-(2-fluoro-6-hydroxy-3-(1-phenyl-1H-imidazol-4-yl)phenyl)-1,2,5-thiadiazolidin-3-one 1,1-dioxide] | ≤ 1000 | ≤ 1000
11 | Nc1nc2ccc(-c3ccc(O)c(N4CC(=O)NS4(=O)=O)c3F)cc2o1 [Compound 191, 5-(3-(2-aminobenzo[d]oxazol-6-yl)-2-fluoro-6-hydroxyphenyl)-1,2,5-thiadiazolidin-3-one 1,1-dioxide] | ≤ 1000 | ≤ 1000
12 | Cn1cc(-c2ccc(O)c(N3CC(=O)NS3(=O)=O)c2F)c(C(F)(F)F)n1 [Compound 192, 5-(2-fluoro-6-hydroxy-3-(1-methyl-3-(trifluoromethyl)-1H-pyrazol-4-yl)phenyl)-1,2,5-thiadiazolidin-3-one 1,1-dioxide] | > 1000 | ≤ 1000
13 | CC(C)CNc1ccc(-c2ccc(O)c(N3CC(=O)NS3(=O)=O)c2F)cc1 [Compound 193, 5-(2-fluoro-4-hydroxy-4′-(isobutylamino)-[1,1′-biphenyl]-3-yl)-1,2,5-thiadiazolidin-3-one 1,1-dioxide] | ≤ 1000 | ≤ 1000
14 | O=C1CN(c2c(O)ccc(-c3cnn(C4CCC4)c3)c2F)S(=O)(=O)N1 [Compound 194, 5-(3-(1-cyclobutyl-1H-pyrazol-4-yl)-2-fluoro-6-hydroxyphenyl)-1,2,5-thiadiazolidin-3-one 1,1-dioxide] | ≤ 1000 | ≤ 1000
15 | O=C1CN(c2c(O)ccc(-c3cnn4ccccc34)c2F)S(=O)(=O)N1 [Compound 195, 5-(2-fluoro-6-hydroxy-3-(pyrazolo[1,5-a]pyridin-3-yl)phenyl)-1,2,5-thiadiazolidin-3-one 1,1-dioxide] | ≤ 1000 | ≤ 1000
16 | CC(C)CCn1ccc(-c2ccc(O)c(N3CC(=O)NS3(=O)=O)c2F)n1 [Compound 196, 5-(2-fluoro-6-hydroxy-3-(1-isopentyl-1H-pyrazol-3-yl)phenyl)-1,2,5-thiadiazolidin-3-one 1,1-dioxide] | ≤ 1000 | ≤ 1000
17 | O=C1CN(c2c(O)ccc(-c3cnn(Cc4cncnc4)c3)c2F)S(=O)(=O)N1 [Compound 197, 5-(2-fluoro-6-hydroxy-3-(1-(pyrimidin-5-ylmethyl)-1H-pyrazol-4-yl)phenyl)-1,2,5-thiadiazolidin-3-one 1,1-dioxide] | ≤ 1000 | ≤ 1000
18 | CC(C)CCN1CCCC(c2ccc(O)c(N3CC(=O)NS3(=O)=O)c2F)C1 (centres unmarked) [Compound 198, 5-(2-fluoro-6-hydroxy-3-(1-isopentylpiperidin-3-yl)phenyl)-1,2,5-thiadiazolidin-3-one 1,1-dioxide] | > 1000 | ≤ 1000

Continued, values first:

Row | IC50 [1] [nM] | IC50 [2] [nM] | SMILES
19 | ≤ 1000 | ≤ 1000 | O=C1CN(c2c(O)ccc(-c3ccc4ocnc4c3)c2F)S(=O)(=O)N1 [Compound 170, 5-(3-(benzo[d]oxazol-5-yl)-2-fluoro-6-hydroxyphenyl)-1,2,5-thiadiazolidin-3-one 1,1-dioxide]
20 | ≤ 1000 | ≤ 1000 | O=C1CN(c2c(O)ccc(-c3cnn(CC4CCOCC4)c3)c2F)S(=O)(=O)N1 [Compound 171, 5-(2-fluoro-6-hydroxy-3-(1-((tetrahydro-2H-pyran-4-yl)methyl)-1H-pyrazol-4-yl)phenyl)-1,2,5-thiadiazolidin-3-one 1,1-dioxide]
21 | ≤ 1000 | ≤ 1000 | COc1ccc(Cn2cc(-c3ccc(O)c(N4CC(=O)NS4(=O)=O)c3F)cn2)cc1 [Compound 172, 5-(2-fluoro-6-hydroxy-3-(1-(4-methoxybenzyl)-1H-pyrazol-4-yl)phenyl)-1,2,5-thiadiazolidin-3-one 1,1-dioxide]
22 | ≤ 1000 | ≤ 1000 | O=C1CN(c2c(O)ccc(-c3coc(-c4ccccc4)n3)c2F)S(=O)(=O)N1 [Compound 173, 5-(2-fluoro-6-hydroxy-3-(2-phenyloxazol-4-yl)phenyl)-1,2,5-thiadiazolidin-3-one 1,1-dioxide]
23 | ≤ 1000 | ≤ 1000 | O=C1CN(c2c(O)ccc(-c3cnn(Cc4ccncc4)c3)c2F)S(=O)(=O)N1 [Compound 174, 5-(2-fluoro-6-hydroxy-3-(1-(pyridin-4-ylmethyl)-1H-pyrazol-4-yl)phenyl)-1,2,5-thiadiazolidin-3-one 1,1-dioxide]
24 | ≤ 1000 | ≤ 1000 | CC(C)CCn1cc(-c2ccc(O)c(N3CC(=O)NS3(=O)=O)c2Cl)cn1 [Compound 175, 5-(2-chloro-6-hydroxy-3-(1-isopentyl-1H-pyrazol-4-yl)phenyl)-1,2,5-thiadiazolidin-3-one 1,1-dioxide]
25 | ≤ 1000 | ≤ 1000 | O=C1CN(c2c(O)ccc(-c3cn(C4CC4)cn3)c2F)S(=O)(=O)N1 [Compound 176, 5-(3-(1-cyclopropyl-1H-imidazol-4-yl)-2-fluoro-6-hydroxyphenyl)-1,2,5-thiadiazolidin-3-one 1,1-dioxide]
26 | ≤ 1000 | ≤ 1000 | O=C1CN(c2c(O)ccc(-c3ccc(N4CCCC4)nc3)c2F)S(=O)(=O)N1 [Compound 177, 5-(2-fluoro-6-hydroxy-3-(6-(pyrrolidin-1-yl)pyridin-3-yl)phenyl)-1,2,5-thiadiazolidin-3-one 1,1-dioxide]
27 | ≤ 1000 | ≤ 1000 | Cn1ncc(-c2ccc(O)c(N3CC(=O)NS3(=O)=O)c2F)n1 [Compound 178, 5-(2-fluoro-6-hydroxy-3-(2-methyl-2H-1,2,3-triazol-4-yl)phenyl)-1,2,5-thiadiazolidin-3-one 1,1-dioxide]
28 | ≤ 1000 | ≤ 1000 | O=C1CN(c2c(O)ccc(-c3cnn(CC4CCCCC4)c3)c2F)S(=O)(=O)N1 [Compound 179, 5-(3-(1-(cyclohexylmethyl)-1H-pyrazol-4-yl)-2-fluoro-6-hydroxyphenyl)-1,2,5-thiadiazolidin-3-one 1,1-dioxide]
